The values below come from patent US20110288036A1, “Methods for Treating or Preventing Vascular Graft Failure” (priority 2010, published 2011).

The subject of one test is P38MAPK. Put plainly: p38 MAPK radiometric kinase assay. The conditions noted are these: peptide 100 μM. Format: biochemical. The source says: A commercial radiometric assay service was used to test the specificity and potency of MMI-0100 ([…]; SEQ ID NO: 1) by measuring its half maximal inhibitory concentrations (IC50). This quantitative assay measures how much MK2 inhibitor (MMI-0100; […] (SEQ ID NO: 1)) is needed to inhibit 50% of a given biological process or component of a process (i.e., an enzyme, cell, or cell receptor). Specifically, in these assays, a positively charged substrate is phosphorylated with a radiolabeled phosphate group from an ATP if the kinase is not inhibited by an inhibitor peptide. The positively charged substrate then is attracted to a negatively charged filter membrane, quantified with a scintillation counter, and compared to a 100% activity control. […]
For the p38 MAPK (p38 Mitogen-Activated Protein Kinase) radiometric assay, 5-10 mU of p38 MAPK was incubated with 25 mM Tris pH 7.5, 0.02 mM EGTA, 0.33 mg/mL myelin basic protein (a substrate for p38 MAPK), 10 mM MgAcetate, and 10 μM of [y-^33P-ATP] in the final reaction volume of 25 μl. […] The washed P30 filtermat was dried and its radioactivity was measured by scintillation counter.
IC50 values for inhibitor peptides were determined using Millipore's IC50 Profiler Express service. […]

Test [1] deals with human saphenous vein (HSV). The test is described as follows: Human saphenous vein organ culture model of intimal hyperplasia. Type of test: cell-based. The conditions noted are these: for average intimal thickness: control 81.6±17.3, pre-culture 43.7±7.8. On the procedure: De-identified, discarded segments of human saphenous vein (HSV) were collected from consented patients undergoing coronary artery or peripheral vascular bypass surgeries. HSV segments were stored in a saline solution until the end of the surgical procedure, at which time they were placed in cold transplant harvest buffer (100 mM potassium lactobionate, 25 mM KH2PO4, 5 mM MgSO4, 30 mM Raffinose, 5 mM Adenosine, 3 mM Glutathione, 1 mM Allopurinol, 50 g/L Hydroxyethyl starch, pH 7.4). The vessels were used within 24 hours of harvest. Using sterile technique, HSV segments were transferred to a 60-mm Petri dish under a sterile hood. The edges (0.5 mm) of each segment were removed with a blade and excess adventitial tissue and fat removed with minimal manipulation. HSV segments were cut into consecutive rings of approximately 1.0 mm in width to be utilized for organ culture or muscle bath experiments. Two rings from each segment were immediately fixed in 10% formalin at 37° C. for 30 min to obtain pre-culture intimal thickening measurements.
After viability was determined in the muscle bath, additional rings were cut and placed in 8-well chamber slides and maintained in RPMI 1640 medium supplemented with 30% FBS, 1% L-glutamine and 1% penicillin/streptomycin for 14 days at 37° C. in an atmosphere of 5% CO2 in air. The rings were either untreated or treated with 10 μM, 50 μM or 100 μM of MMI-0100 peptide ([…] (SEQ ID NO: 1)). The culture medium with treatments was replaced every 2-3 days.
After 14 days of organ culture, vein segments were fixed in 0.5 mL of 10% formalin at 37° C. for 30 minutes and embedded in paraffin for sectioning. Beginning at the mid-portion of each ring, 5 transverse sections, spaced 5 μm apart, were cut for each specimen. Sections were then stained with Verhoeff-van Gieson stain. Each section was examined using light microscopy (Carl Zeiss, Thornwood, N.Y.) and 6 radially parallel measurements of intimal and medial thickness were randomly taken from each section ([…]). Intima was defined as tissue on the luminal side of the internal elastic lamina or the chaotic organization of the cells contained within it, whereas the medial layer was contained between the intimal layer and the external elastic lamina. Intimal and medial thickening was measured for each section at 5× magnification with the microscope's computerized image analysis system.
To this end, rings of human saphenous vein (HSV) were cultured in RPMI medium supplemented with L-glutamine (1%), penicillin/streptomycin (1%), and fetal bovine serum (FBS) (30%) at 5% CO2 and 37° C. for 14 days.
The effect of MMI-0100 ([…]; SEQ ID NO: 1) on development of intimal hyperplasia was further examined in a follow-up study in which intimal thickness of HSV in an organ culture model was measured in the presence of high serum and different concentrations (10-100 μM) of MMI-0100 ([…]; SEQ ID NO: 1). HSV were cultured for 14 days in 30% serum. All veins were deemed viable at the time of culture by adequate contraction with a phenylephrine challenge in a muscle bath. The average intimal thickness of pre-cultured vein segments was 43.7±7.8 μm. After culture, the average intimal thickness of the control was 81.6±17.3 μm. The average intimal thickness in the presence of 50 μM and 100 μM MMI-0100 ([…]; SEQ ID NO: 1) was 42.7±6.0 μm and 50.4±10.7 μm, respectively, with a significant reduction in intimal thickness (FIGS. 10A and 11).

Turning to YARAAARQARAKALARQLGVAA [MMI-0100], the “Percent Activity, P38MAPK” value in the test with P38MAPK is given as 60%. Moreover, the “mean intimal thickness of HSV in culture” value in test [1] (5 μM or 10 μM, 14 days culture, in contrast to r-HSPB1) was “significantly reduced the mean intimal thickness”. For the same sequence, the mean intimal thickness in test [1] (10 μM, 14 days culture) worked out at 14 μm. The average intimal thickness in test [1] (50 μM, 14 days, 30% serum) turned out to be 42.7±6.0 μm; in test [1] (100 μM, 14 days, 30% serum), 50.4±10.7 μm. In addition, in test [1] (100 μM, 14 days, 30% serum), the “intima:media (I:M) ratio” value is given as “greater reduction of the I:M ratio”.
